Results on 13 molecules are retold here after publication PMC10538174, “Bioactivity-Guided Synthesis: In Silico and In Vitro Studies of β-Glucosidase Inhibitors to Cope with Hepatic Cytotoxicity” (Molecules, 2023).

The subject of experiment [1] is β-glucosidase from E. coli. The experiment in a line: β-glucosidase enzyme inhibition assay (p-nitrophenyl-β-D-glucopyranoside substrate). It is filed as biochemical. The settings on record: for IC50: E. coli enzyme, pH 6.8, 37 °C, read at 405 nm, read-out: IC50 ± SEM against β-glucosidase; for % inhibition ± SD against β-glucosidase: test concentration not given. On the procedure:
β-glucosidase inhibition activity of the synthesized compounds, with an enzyme concentration of […] were used for the inhibition assay. The IC50 values were determined at different concentrations using Graph Pad Prism v5.0.
(§1) All of the reported results are the mean of three independent experiments, and those compounds showing > 50% inhibition were further analyzed for their IC50 values at different dilutions. The IC50 values were calculated by using nonlinear regression analysis and GraphPad Prism version 8. SEM = standard error mean.
The inhibition analysis of β-glucosidase was carried out, where p-nitrophenyl-β-D-glucopyranoside was used as a substrate, and the β-glucosidase from E. coli (purchased from Sigma Aldrich) was dissolved in buffer solution (pH 6.8). A total volume of 60 µL of sodium phosphate buffer, 10 µL of each test sample (dissolved in 1% DMSO), and 10 µL of enzyme (1.5 U/mL) were mixed together and incubated for 5 min at 37 °C, followed by the addition of 10 µL of p-nitrophenyl-β-D-glucopyranoside (dissolved in a buffer solution). Incubation of the mixture was carried out for 30 min, and 10 µL of 0.2 M sodium carbonate solution was subsequently added. DMSO (1%) was used as a negative control. The p-nitrophenol produced from p-nitrophenyl-β-D-glucopyranoside was measured at a λmax of 405 nm in order to evaluate the activity of the test compounds against β-glucosidase. The %inhibition of β-glucosidase was calculated by the following formula: %Inhibition=(100−sample/control×100
Graph Pad Prism v5.00 was used to find out the IC50 (concentration at which 50% of enzymatic activity was inhibited by the test sample) value from a second-order regression analysis.

The subject of experiment [2] is HepG2 cells. The experiment in a line: MTT cell viability assay on HepG2 hepatic cancer cells. The format is cell-based, human. The settings on record: for viability at 200 µg / IC50: Homo sapiens, HepG2, 48 h, MTT, 48 h; for viability at 200 µg: concentration of 200 µg, read-out: % viability ± SD against HepG2 cancer cell lines; for IC50: read-out: IC50 ± SEM against HepG2 cancer cell line. The method, then:
as §1
The human liver cells were cultivated in Dulbecco’s modified Eagle medium (DMEM), in which 100 U/mL penicillin, 10% fetal bovine, and 100 µg/mL streptomycin were added and kept at 37 °C in a […] carbon dioxide-induced humidified environment. The human liver cells prepared as per the above procedure were then treated with synthesized compounds diluted to a 0.05% DMSO concentration.
By using an MTT assay, the %viability of cancer cells was evaluated. According to the standard procedure, the HepG2 cells were treated with various dosages of synthesized compounds for 48 h each. The cells were then incubated for 4 h at 37 °C with 10 μMTT reagent (5 mg/mL). Next, 150 μL of DMSO was added to dissolve the formazan crystals. The λmax was recorded at […] in a microplate reader (Thermos Scientific, Waltham, MA, USA).
(In general: Tetrazolium dyes change colour on reduction, which living cells bring about.)

SMILES strings stand for the structures.

For the molecule `C[C@H]1O[C@H](O[C@H]2[C@H](O)[C@@H](O)[C@@H](O[C@H]3[C@H](O)[C@@H](O)C(O)O[C@@H]3CO)O[C@@H]2CO)[C@H](O)[C@@H](O)[C@@H]1N[C@H]1C=C(CO)[C@@H](O)[C@H](O)[C@H]1O` (stereo partly shown) [Acarbose, reference compound], the IC50 (as a rule, the concentration at which inhibition is half-maximal) in experiment [1] amounted to 2.15 µM.
As to `O=C(O)c1ccc(NC(=O)c2ccccc2C(=O)O)cc1` [Compound 1c], in experiment [1], the IC50 was found to be 1.26 µM and the “% inhibition ± SD against β-glucosidase” value is reported as 76 ± 1.41%. The “β-glucosidase inhibition better than the standard” value in experiment [1] (versus acarbose) is on record as 40%. Besides, the viability (in general, the share of living cells, or the viability signal relative to a control) at 200 µg in experiment [2] was found to be 35.6%.
Take `O=C(O)c1ccccc1C(=O)Nc1ccc([N+](=O)[O-])cc1` [Compound 2c]: in experiment [1], the IC50 is 2.17 ± 0.11 µM and the “% inhibition ± SD against β-glucosidase” value is 68 ± 1.41%. Also, in experiment [2], the viability at 200 µg worked out at 29.4%.
Take `O=C(O)c1ccccc1C(=O)Nc1ccc(Cl)c(C(F)(F)F)c1` [Compound 3c]: in experiment [1], the IC50 was determined as 3 ± 0.17 µM and the “% inhibition ± SD against β-glucosidase” value amounted to 70 ± 2.82%. Moreover, the viability at 200 µg in experiment [2] came to 12.8%. For the same molecule, in experiment [2] (versus thalidomide), the “more anti-tumor activity against the HepG2 cell line than the known drug” value is “greater than 9%”.
With `O=C(O)c1ccccc1C(=O)Nc1ccc(Cl)cc1` [Compound 4c], the “% inhibition ± SD against β-glucosidase” value in experiment [1] turned out to be 42 ± 1.42%. The viability at 200 µg in experiment [2] worked out at 26.9%.
On to `O=C(O)c1ccccc1C(=O)N1CCN(CCN2C(=O)c3ccccc3C2=O)CC1` [Compound 5c], for which, in experiment [1], the IC50 came out at 1.26 ± 0.11 µM and the “% inhibition ± SD against β-glucosidase” value stood at 71 ± 1.2%. The viability at 200 µg in experiment [2] was 42.2 ± 2.2%.
For the molecule `O=C1c2ccccc2C(=O)N1Cc1ccccc1` [Compound 6c], in experiment [1], the “% inhibition ± SD against β-glucosidase” value stood at 45.0 ± 1.41%.
As to `Cc1ccc(N2C(=O)c3ccccc3C2=O)cc1` [Compound 7c], in experiment [1], the IC50 stood at 6.98 ± 0.31 µM and the “% inhibition ± SD against β-glucosidase” value is listed as 63.5 ± 0.71%. For the same molecule, in experiment [2], the viability at 200 µg is 21.4 ± 3.4% and the IC50 stood at 12.8 ± 2.33 µM.
Turning to `O=C(O)CCCCCN1C(=O)c2ccccc2C1=O` [Compound 8c], in experiment [1], the IC50 came to 4.78 ± 0.27 µM and the “% inhibition ± SD against β-glucosidase” value turned out to be 70.5 ± 2.12%. Also, the viability at 200 µg in experiment [2] worked out at 24.8%.
With `O=C(O)c1ccc(N2C(=O)c3ccccc3C2=O)cc1` [Compound 9c], the “% inhibition ± SD against β-glucosidase” value in experiment [1] is 61.5 ±0.12%.
On to `O=C1c2ccccc2C(=O)N1c1ccccc1F` [Compound 10c], for which, in experiment [1], the “% inhibition ± SD against β-glucosidase” value is listed as 50.5 ± 2.31%. In addition, in experiment [2], the viability at 200 µg worked out at 20.5 ± 4.2% and the IC50 was found to be 48 ± 2.18 µM.
In the case of `Cc1c(N2C(=O)c3ccccc3C2=O)c(=O)n(-c2ccccc2)n1C` [Compound 11c], in experiment [1], the IC50 was 9.57 ± 0.22 µM and the “% inhibition ± SD against β-glucosidase” value is recorded as 56.5 ± 2.45%. The viability at 200 µg in experiment [2] was 40.8 ± 2.5%.
`O=C1c2ccccc2C(=O)N1c1ccccc1` [Compound 12c]: in experiment [1], the “% inhibition ± SD against β-glucosidase” value is given as 45.2 ±0.4%. In addition, the viability at 200 µg in experiment [2] worked out at 27.2%.
